Assay results reported in ChEMBL document CHEMBL1201862, “PubChem BioAssay data set” (2004).
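Following 48 hours of exposure in 96-well plates, responses at five concentrations were used to interpolate endpoints linearly. At the GI50, growth is halved.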 Active and inactive are the calls of the source. Cut-off read from the data, not from the text of the source: active = GI50 up to about 1.1 µM and inactive = higher.

Key:
Assay in all cases: inhibition of tumour cell growth, NCI panel, 48 h
[1] = tested on: MDA-MB-231
[2] = tested on: MDA-N
[3] = tested on: DLD-1
[4] = tested on: DMS-273
[5] = tested on: HOP-18
[6] = tested on: KM-20L2
[7] = tested on: LXFL 529
[8] = tested on: SNB-78

Measured: GI50

OC1OC(c2ccc[nH]2)C(F)(F)C(F)(F)C1(F)F (stereo not drawn)
inactive: [1] > 100 µM | [2] > 100 µM

COc1c2cc([N+](=O)[O-])cc1CNC(=O)CN1CCOCCOCCN(CCOCCOCC1)CC(=O)NC2
inactive: [1] > 100 µM | [2] > 100 µM

COc1ccc(-c2cc(=O)c3c(O)c(OC)c(O)c(OC)c3o2)cc1OC
inactive: [3] 54.8 µM | [4] 54.1 µM | [5] 54.3 µM | [6] > 100 µM | [7] 61.1 µM | [8] 42 µM

ClCc1nc2cc(Cl)ccc2o1
inactive: [1] 3.16 µM | [2] 5.71 µM

O=C(Nc1cccc(C(F)(F)F)c1)O/N=C(/Cl)CCl
inactive: [1] 17.1 µM | [2] 71.8 µM

N#CCc1nc(C#N)c(N)o1
inactive: [1] > 100 µM | [2] > 100 µM

CSc1nnc(SCc2nn3c(=O)cc(C)nc3s2)s1
inactive: [1] > 100 µM | [2] > 100 µM

CCOC(=O)c1sc2c(c1OC(=O)c1ccco1)c(=O)n(-c1ccccc1)c(=S)n2-c1ccccc1
inactive: [1] 28.1 µM | [2] 41.7 µM

COc1ccc(-c2c3c(n(C4OC(COC(C)=O)C(OC(C)=O)C(OC(C)=O)C4OC(C)=O)c(=S)c2C#N)CCC3)cc1 (stereo not drawn)
inactive: [2] > 100 µM

O=C1CCCC2(c3ccccc3)Nc3ccccc3N12 (stereo not drawn)
inactive: [1] > 100 µM | [2] > 100 µM

Cc1ccccc1C(=O)Oc1ccc(Oc2ccccc2)cc1
inactive: [3] > 100 µM | [4] > 100 µM | [5] > 100 µM | [6] > 100 µM | [7] > 100 µM | [8] > 100 µM

COc1ccccc1N1C(=O)/C(=C\c2cccc(Oc3ccccc3)c2)S(=O)(=O)C1c1ccccc1 (stereo not drawn)
inactive: [1] > 100 µM | [2] 36.4 µM

CC1=C(C)C(=O)OC(C(C)(O)C2(O)CC3OC34C3CC(O)C56OC5C=CC(=O)C6(C)C3CCC42C)C1 (stereo not drawn)
inactive: [1] 1.78 µM | [2] 1.61 µM

CCCN1C(=O)CNC(=O)c2[nH]cnc21
inactive: [3] > 100 µM | [5] > 100 µM | [6] > 100 µM | [7] > 100 µM | [8] > 100 µM

CC(=O)OC1CC2C(C)(C)OC(=O)CC(OC(C)=O)[C@]2(C)C2CCC3(C)C(=CCC3c3ccoc3)[C@]12C (stereo partly drawn)
inactive: [3] 13 µM | [4] 13.7 µM | [6] 28.1 µM | [7] 13.9 µM | [8] 48.9 µM

COc1cccc([C@@]2(O)c3c(ccc(O)c3OC)[C@H]2OC)c1OC
inactive: [3] 35.7 µM | [6] 38.9 µM | [7] 19.6 µM | [8] 49.7 µM

Nc1nn2c(=O)c3ccccc3nc2s1
inactive: [2] 38.3 µM

COc1ccc(C[C@H]2COC(=O)[C@@H]2Cc2ccc(Br)cc2)cc1OC
inactive: [1] 24 µM | [2] 27.7 µM

O=[N+]([O-])/C=C/c1ccc(Cl)cc1Cl
inactive: [3] 24.7 µM | [4] 11 µM | [6] 18.7 µM | [7] 13.8 µM

S=C(N/N=C\C(=N/NC(=S)N1CCCCC1)c1ccccc1)N1CCCCC1
inactive: [1] 2.43 µM | [2] 2.89 µM

CCCC1=C(CC)C(C(=O)Nc2c(C)cccc2C)=NC(S)N1 (stereo not drawn)
inactive: [3] > 100 µM | [4] > 100 µM | [5] > 100 µM | [6] > 100 µM | [7] > 100 µM | [8] > 100 µM

COC1CC(OC2C(C)OC(OC3C(C)OC(OC4C(C)OC(O[C@H]5CC[C@@]6(C)C(=CC[C@]7(O)[C@@H]6C[C@@H](OC(C)=O)[C@@]6(C)[C@]7(O)CC[C@@]6(O)C(C)=O)C5)CC4OC)CC3OC)CC2OC)OC(C)C1O (stereo partly drawn)
inactive: [1] > 25 µM | [2] > 25 µM

CN1N=C(Nc2ccccc2)Sc2c1cnn(-c1ccccc1)c2=O
inactive: [3] > 100 µM | [4] > 100 µM | [5] 20 µM | [6] > 100 µM | [7] 79.8 µM

C=CCn1cc(C(=O)NC(=O)NCCCCCOC(=O)CCCCCCCCCCC(=O)OCCCCCNC(=O)NC(=O)c2cn(CC=C)c(=O)n(C)c2=O)c(=O)n(C)c1=O
inactive: [3] > 100 µM | [4] > 100 µM | [5] 71.8 µM | [6] > 100 µM | [7] > 100 µM | [8] > 100 µM

CCN(CC)CCNc1ccc([N+](=O)[O-])c2nc3ccc(OC)cc3c(N)c12
inactive: [1] 1.16 µM | [2] 1.67 µM

COc1ccc(C2N3CCCCC3[C@@H]3c4[nH]c5ccccc5c4CCN23)c(OC)c1 (stereo partly drawn)
inactive: [3] 33.4 µM | [4] 16.4 µM | [5] > 100 µM | [6] 18.8 µM | [7] 21.8 µM | [8] 18.9 µM
